Assay results: patent US20040097544A1, “Use of an inhibitor of the Na+/H+ exchanger for the production of a medicament for the treatment or prophylaxis of disturbances of the central nervous system” (Hoechst Marion Roussel Deutschland GMBH, priority 1997, published 2004)

Tested on: CA3 neurons of the hippocampus
Experiment: Decrease in neuronal excitability on hippocampus slice preparations of CA3 neurons, intracellular leads
Assay type: cell-based, guinea-pigs
Method: In the model of CA3 neurons in hippocampus tissue slices, NHE inhibitors with their antiepileptic and antipsychotic therapy potential inhibit epileptiform discharges. Hyperexcitability of neurons in the form of so-called epileptiform discharges was triggered by the action of bicuculline, caffeine or low magnesium concentrations. […] The decrease in neuronal excitability was tested on slice preparations of CA3 neurons of the hippocampus (guinea-pigs). The excitation-inhibiting action of cariporide (HOE 642) was investigated in 8 experiments. The neuronal excitability was assessed with intracellular leads with the aid of the spontaneous bioelectric activity and the pharmacologically produced epileptiform activity which had been induced by bicuculline, caffeine or absence of magnesium.

## CC(C)c1ccc(C(=O)NC(=N)N)cc1S(C)(=O)=O [cariporide]
CA3 neurons in hippocampus tissue slices, discharges triggered by bicuculline, caffeine or low magnesium concentrations
  inhibition of the epileptiform discharges: marked inhibition
After wash-in of 0.1-0.5 mM cariporide
  duration of the reduction of spontaneous action potential and paroxysmal depolarization frequency: more than 45 minutes
After wash-in of 0.1-0.5 mM cariporide, reversible, 8 experiments
  reduction of the frequency of the spontaneous action potentials: 30-80%
After wash-in of 0.1-0.5 mM cariporide, reversible, epileptiform activity induced by bicuculline, caffeine or absence of magnesium, 8 experiments
  reduction of the frequency of periodic paroxysmal depolarization: 30-80%
